Results published in ChEMBL document CHEMBL5537122, “Design, synthesis, and biological evaluation of 4-(2-fluorophenoxy)-7-methoxyquinazoline derivatives as dual EGFR/c-Met inhibitors for the treatment of NSCLC” (Eur J Med Chem, 2024).
Activity calls are given as the source filed them. The rule behind the calls is not given here.

Columns and labels:
PC-9 = assay: Antiproliferative activity against human PC-9 cells overexpressing c-Met and EGFR assessed as reduction in cell viability incubated for 72 hrs by MTT assay; type: functional, cell-based; conditions: PC-9, 72 h
A549 [1] = assay: Induction of apoptosis in human A549 cells overexpressing c-MET assessed as reduction in red fluorescence intensity incubated for 24 hrs by JC-1 staining based fluorescence inverted microscopic analysis; type: functional, cell-based; conditions: dose 1-2.5 µM
A549 [2] = assay: Induction in apoptosis in human A549 cells overexpressing c-MET assessed as late apoptotic cells at 1 uM incubated for 24 hrs by Annexin V-FITC/Propidium Iodide staining based flow cytometry analysis (reference value: 7.59 %); type: functional
A549 [3] = assay: Induction in apoptosis in human A549 cells overexpressing c-MET assessed as necrotic cells at 1 uM incubated for 24 hrs by Annexin V-FITC/Propidium Iodide staining based flow cytometry analysis (reference value: 3.22 %); type: functional
A549 [4] = assay: Induction in apoptosis in human A549 cells overexpressing c-MET assessed as late apoptotic cells at 2.5 uM incubated for 24 hrs by Annexin V-FITC/Propidium Iodide staining based flow cytometry analysis (reference value: 7.59 %); type: functional
NCI-H1975 = assay: Induction in apoptosis in human NCI-H1975 cells assessed as early apoptotic cells at 2.5 uM incubated for 24 hrs by Annexin V-FITC/Propidium Iodide staining based flow cytometry analysis (reference value: 2.54 %); type: functional
[5] = Induction in apoptosis in human L02 cells assessed as viable cells at 1 uM incubated for 24 hrs by Annexin V-FITC/Propidium Iodide staining based flow cytometry analysis (reference value: 92.75 %); type: toxicity, cell-based; conditions: read-out: Activity
L02 [6] = assay: Induction in apoptosis in human L02 cells assessed as necrotic cells at 1 uM incubated for 24 hrs by Annexin V-FITC/Propidium Iodide staining based flow cytometry analysis (reference value: 6.63 %); type: toxicity, cell-based; conditions: l02, 24 h
L02 [7] = assay: Induction in apoptosis in human L02 cells assessed as early apoptotic cells at 2.5 uM incubated for 24 hrs by Annexin V-FITC/Propidium Iodide staining based flow cytometry analysis (reference value: 0.26 %); type: toxicity, cell-based; conditions: l02, 24 h
A549 [8] = assay: Induction of cell cycle arrest in human A549 cells overexpressing c-MET assessed as accumulation of cells at G2/M phase at 2.5 uM incubated for 24 hrs by RNase A/propidium iodide staining based flow cytometric analysis (reference value: 12.41 %); type: functional
A549 [9] = assay: Downregulation of phosphorylated Akt expression level human A549 cells overexpressing c-MET incubated for 24 hrs by Western blotting analysis; type: functional, cell-based; conditions: dose 0.2-10 µM
[10] = biological target: T1, Epidermal growth factor receptor (Homo sapiens, UniProt P00533); assay: Inhibition of wild type EGFR (unknown origin) at 10 uM relative to control
[11] = biological target: Macrophage-stimulating protein receptor (Homo sapiens) (UniProt Q04912); assay: Inhibition of RON (unknown origin) at 10 uM
[12] = biological target: Proto-oncogene tyrosine-protein kinase ROS (Homo sapiens) (UniProt P08922); assay: Inhibition of ROS (unknown origin) at 10 uM
[13] = biological target: Vascular endothelial growth factor receptor 3 (Homo sapiens) (UniProt P35916); assay: Inhibition of FLT4 (unknown origin) at 10 uM
[14] = biological target: Receptor-type tyrosine-protein kinase FLT3 (Homo sapiens) (UniProt P36888); assay: Inhibition of FLT3 (unknown origin) at 10 uM
[15] = biological target: Insulin receptor (Homo sapiens) (UniProt P06213); assay: Inhibition of INSR (unknown origin) at 10 uM
Homo sapiens = species: Homo sapiens; assay: Inhibition of EGFR T790/C797S mutant (unknown origin) at 10 uM
[16] = biological target: Proto-oncogene tyrosine-protein kinase receptor Ret (Homo sapiens) (UniProt P07949); assay: Inhibition of RET (unknown origin) at 10 uM
[17] = biological target: Fibroblast growth factor receptor 1 (Homo sapiens) (UniProt P11362); assay: Inhibition of FGFR1 (unknown origin) at 10 uM
[18] = Cardiotoxicity in KM mouse assessed as effect on lactate dehydrogenase level at 100 mg/kg, IG qd administered for 7 days by automatic biochemical analyzer; type: toxicity, organism-based; conditions: in vivo, po, 168 h, time 7 day
[19] = Acute toxicity in KM mouse assessed as cell damage or necrosis in kidney at 100 mg/kg, IG qa administered for 7 days and measured on day 8 by hematoxylin and eosin staining based assay; type: organism-based; conditions: in vivo, po, 192 h, time 8 day
[20] = biological target: T1, Epidermal growth factor receptor; assay: biochemical
Description: Inhibition of N-terminal GST tagged human recombinant EGFR (695 to end residues) expressed in baculovirus infected Sf9 cells using Poly (4:1 Glu, Tyr) as substrate incubated for 60 mins in presence of ATP by ADP-Glo luminescent assay

[21] = biological target: Epidermal growth factor receptor (Homo sapiens, UniProt P00533, L858R); assay: biochemical

T1 sequence (P00533 whole entry): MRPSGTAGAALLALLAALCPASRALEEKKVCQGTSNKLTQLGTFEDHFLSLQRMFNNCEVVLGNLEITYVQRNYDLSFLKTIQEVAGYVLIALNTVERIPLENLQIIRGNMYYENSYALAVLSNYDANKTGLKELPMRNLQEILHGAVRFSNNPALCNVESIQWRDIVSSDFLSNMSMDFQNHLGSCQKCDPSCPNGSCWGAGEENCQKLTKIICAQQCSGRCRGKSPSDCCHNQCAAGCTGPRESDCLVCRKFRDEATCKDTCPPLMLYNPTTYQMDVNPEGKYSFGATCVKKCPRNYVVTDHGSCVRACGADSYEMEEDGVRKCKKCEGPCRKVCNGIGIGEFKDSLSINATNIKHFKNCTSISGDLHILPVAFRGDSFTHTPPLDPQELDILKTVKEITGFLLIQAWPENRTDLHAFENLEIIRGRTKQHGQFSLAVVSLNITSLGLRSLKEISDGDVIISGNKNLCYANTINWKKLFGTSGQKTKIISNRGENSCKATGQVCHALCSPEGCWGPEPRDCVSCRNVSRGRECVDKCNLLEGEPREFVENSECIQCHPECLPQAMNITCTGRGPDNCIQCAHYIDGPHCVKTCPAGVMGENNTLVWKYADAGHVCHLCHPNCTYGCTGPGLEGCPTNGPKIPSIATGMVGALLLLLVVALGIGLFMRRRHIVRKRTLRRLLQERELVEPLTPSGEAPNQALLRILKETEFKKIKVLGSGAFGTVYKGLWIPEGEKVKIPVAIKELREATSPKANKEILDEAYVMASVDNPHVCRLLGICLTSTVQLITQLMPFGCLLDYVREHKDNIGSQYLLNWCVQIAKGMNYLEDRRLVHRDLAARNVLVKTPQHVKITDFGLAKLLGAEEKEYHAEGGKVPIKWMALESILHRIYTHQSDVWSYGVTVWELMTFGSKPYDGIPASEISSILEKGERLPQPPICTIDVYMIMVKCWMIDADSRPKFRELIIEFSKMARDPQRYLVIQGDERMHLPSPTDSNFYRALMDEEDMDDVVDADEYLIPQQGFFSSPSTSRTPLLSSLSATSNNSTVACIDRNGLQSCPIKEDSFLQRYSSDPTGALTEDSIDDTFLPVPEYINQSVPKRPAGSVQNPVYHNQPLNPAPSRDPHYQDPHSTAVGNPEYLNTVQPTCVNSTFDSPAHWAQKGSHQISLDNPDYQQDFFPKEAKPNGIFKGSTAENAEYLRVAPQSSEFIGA
Chain of Proto-oncogene tyrosine-protein kinase receptor Ret (Homo sapiens) (P07949 whole entry): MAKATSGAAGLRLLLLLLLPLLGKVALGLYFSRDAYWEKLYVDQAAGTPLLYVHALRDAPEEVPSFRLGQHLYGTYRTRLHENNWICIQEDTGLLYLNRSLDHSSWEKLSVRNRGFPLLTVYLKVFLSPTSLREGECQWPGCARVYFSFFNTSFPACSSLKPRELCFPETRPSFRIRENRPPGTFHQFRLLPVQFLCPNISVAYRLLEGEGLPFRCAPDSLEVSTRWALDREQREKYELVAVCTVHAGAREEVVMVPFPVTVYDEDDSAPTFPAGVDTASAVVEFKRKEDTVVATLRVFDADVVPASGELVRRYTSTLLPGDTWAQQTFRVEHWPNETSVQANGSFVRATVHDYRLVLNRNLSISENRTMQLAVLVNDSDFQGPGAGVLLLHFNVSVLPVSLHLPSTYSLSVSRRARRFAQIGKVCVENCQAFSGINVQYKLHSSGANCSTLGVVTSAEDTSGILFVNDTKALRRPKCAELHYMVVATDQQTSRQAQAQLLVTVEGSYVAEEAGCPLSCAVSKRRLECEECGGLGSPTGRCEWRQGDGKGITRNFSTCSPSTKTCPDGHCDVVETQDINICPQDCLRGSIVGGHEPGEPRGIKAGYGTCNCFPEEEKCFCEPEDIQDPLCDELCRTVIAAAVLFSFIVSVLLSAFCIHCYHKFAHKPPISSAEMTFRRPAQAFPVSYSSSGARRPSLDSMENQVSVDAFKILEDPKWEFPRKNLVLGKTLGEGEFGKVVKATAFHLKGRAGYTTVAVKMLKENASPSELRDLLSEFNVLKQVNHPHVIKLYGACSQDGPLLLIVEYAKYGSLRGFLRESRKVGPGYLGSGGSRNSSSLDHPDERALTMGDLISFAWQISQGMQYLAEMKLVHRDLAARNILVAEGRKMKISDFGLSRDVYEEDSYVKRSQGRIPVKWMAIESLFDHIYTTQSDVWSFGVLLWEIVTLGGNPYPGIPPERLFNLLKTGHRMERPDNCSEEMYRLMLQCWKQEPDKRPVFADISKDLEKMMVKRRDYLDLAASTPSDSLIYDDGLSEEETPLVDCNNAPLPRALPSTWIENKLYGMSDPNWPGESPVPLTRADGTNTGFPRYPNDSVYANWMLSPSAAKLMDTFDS
Chain of Proto-oncogene tyrosine-protein kinase ROS (Homo sapiens) (P08922 whole entry): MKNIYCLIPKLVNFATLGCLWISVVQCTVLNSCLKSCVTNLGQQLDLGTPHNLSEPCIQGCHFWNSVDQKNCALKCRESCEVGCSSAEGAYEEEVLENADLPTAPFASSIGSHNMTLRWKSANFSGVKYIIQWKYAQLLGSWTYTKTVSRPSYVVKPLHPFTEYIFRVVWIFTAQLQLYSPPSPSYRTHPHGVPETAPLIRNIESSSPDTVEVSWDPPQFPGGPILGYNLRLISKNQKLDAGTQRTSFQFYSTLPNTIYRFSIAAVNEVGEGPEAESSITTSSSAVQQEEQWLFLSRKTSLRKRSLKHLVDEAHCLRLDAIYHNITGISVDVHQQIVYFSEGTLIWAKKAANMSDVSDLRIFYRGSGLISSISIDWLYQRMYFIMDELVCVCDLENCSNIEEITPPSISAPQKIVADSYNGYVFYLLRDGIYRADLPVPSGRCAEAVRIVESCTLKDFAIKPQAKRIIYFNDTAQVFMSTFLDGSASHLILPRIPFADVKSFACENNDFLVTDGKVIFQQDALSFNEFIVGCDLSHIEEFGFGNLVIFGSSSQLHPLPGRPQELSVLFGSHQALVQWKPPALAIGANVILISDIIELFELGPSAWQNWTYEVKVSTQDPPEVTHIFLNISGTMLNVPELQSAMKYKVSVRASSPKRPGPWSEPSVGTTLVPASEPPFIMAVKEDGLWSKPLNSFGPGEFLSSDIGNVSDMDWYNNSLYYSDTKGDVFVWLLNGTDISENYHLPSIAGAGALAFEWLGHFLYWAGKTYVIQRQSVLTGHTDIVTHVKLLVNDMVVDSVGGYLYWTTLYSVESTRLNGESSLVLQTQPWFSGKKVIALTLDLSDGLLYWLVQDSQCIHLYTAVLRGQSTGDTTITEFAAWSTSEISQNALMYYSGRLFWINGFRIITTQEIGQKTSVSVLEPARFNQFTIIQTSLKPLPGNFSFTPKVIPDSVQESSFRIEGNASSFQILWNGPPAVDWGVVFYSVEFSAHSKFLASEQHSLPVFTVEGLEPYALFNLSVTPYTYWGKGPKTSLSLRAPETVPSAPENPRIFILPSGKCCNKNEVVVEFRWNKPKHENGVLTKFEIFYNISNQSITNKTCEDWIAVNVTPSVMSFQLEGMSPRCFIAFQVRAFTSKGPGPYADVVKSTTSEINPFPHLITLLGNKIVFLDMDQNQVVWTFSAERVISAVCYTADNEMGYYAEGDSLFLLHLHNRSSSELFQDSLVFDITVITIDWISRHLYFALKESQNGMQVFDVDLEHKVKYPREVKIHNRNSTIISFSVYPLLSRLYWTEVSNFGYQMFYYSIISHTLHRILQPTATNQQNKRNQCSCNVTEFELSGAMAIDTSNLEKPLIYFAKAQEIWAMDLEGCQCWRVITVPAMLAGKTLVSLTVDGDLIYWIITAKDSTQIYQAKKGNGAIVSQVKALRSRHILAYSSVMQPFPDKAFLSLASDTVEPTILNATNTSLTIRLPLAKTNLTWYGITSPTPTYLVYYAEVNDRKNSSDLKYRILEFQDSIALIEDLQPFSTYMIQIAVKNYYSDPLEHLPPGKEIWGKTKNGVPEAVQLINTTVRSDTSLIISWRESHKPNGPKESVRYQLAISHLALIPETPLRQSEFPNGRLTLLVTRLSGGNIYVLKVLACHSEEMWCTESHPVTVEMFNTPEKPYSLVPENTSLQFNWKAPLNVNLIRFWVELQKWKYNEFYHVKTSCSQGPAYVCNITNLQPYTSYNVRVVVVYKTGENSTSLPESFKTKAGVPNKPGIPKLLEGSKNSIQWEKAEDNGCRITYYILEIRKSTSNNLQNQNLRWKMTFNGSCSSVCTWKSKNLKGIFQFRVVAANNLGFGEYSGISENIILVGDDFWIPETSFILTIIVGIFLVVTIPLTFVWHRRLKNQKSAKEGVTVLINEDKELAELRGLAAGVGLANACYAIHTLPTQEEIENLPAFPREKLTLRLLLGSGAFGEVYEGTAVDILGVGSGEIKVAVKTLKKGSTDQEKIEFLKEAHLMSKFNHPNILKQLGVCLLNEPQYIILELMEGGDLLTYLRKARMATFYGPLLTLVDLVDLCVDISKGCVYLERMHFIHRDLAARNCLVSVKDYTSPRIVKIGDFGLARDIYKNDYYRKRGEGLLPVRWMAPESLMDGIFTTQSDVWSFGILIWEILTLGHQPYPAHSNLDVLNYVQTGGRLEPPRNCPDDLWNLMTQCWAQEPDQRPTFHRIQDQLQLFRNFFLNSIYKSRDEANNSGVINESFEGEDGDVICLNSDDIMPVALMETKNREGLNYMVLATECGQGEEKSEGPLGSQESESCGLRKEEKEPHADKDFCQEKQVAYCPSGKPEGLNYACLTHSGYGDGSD

With C=CC(=O)Nc1cc2c(Oc3ccc(NC(=O)n4c(=O)c(-c5ccccc5)c(C)n4C)cc3F)cccc2cc1OC the IC50 (PC-9) was 1050 nM, the Activity (A549 [1]) was “Dose-Dependent Effect” and the Activity (A549 [2]) was 12.12%. It also gave an Activity (A549 [3]) of 6.61%, an Activity (A549 [4]) of 22.82% and an Activity (NCI-H1975) of 3.87%. It also gave a viability at 24 h, 1 µM [5] of 91.9%, an Activity (L02 [6]) of 7.58% and an Activity (L02 [7]) of 0.13%. For the same compound, the Activity (A549 [8]) was 10.98%, the Activity (A549 [9]) was “Dose-Dependent Effect” and the inhibition [10] was > 90%. The inhibition [11] was “Active”, the inhibition [12] was “Active” and the inhibition [13] was “Active”. The inhibition [14] was “inactive”, the inhibition [15] was “inactive” and the inhibition (Homo sapiens) was “inactive”. For the same compound, the inhibition [16] was “inactive”, the inhibition [17] was “inactive” and the Activity [18] was “Non-Toxic”. The Activity [19] was “Non-Toxic”, the IC50 [20] was 99.8 nM and the IC50 [21] was 68.1 nM.
